Experimental data published in patent publication US8685977B2, “Chemical compounds” (Pfizer Limited, priority 2010, dated 2014).
pIC50: −log10 of the molar value.

Legend:
[1] = target: T1, Nav1.7 (or SCN9A) channel (Homo sapiens, UniProt Q15858); assay: Nav1.7 Ionworks Quattro automated electrophysiology assay (HEK cells expressing hSCN9A); format: cell-based; settings: Ionworks assay (IW), read-out: Nav1.7 EIC50 (IW)
T1 construct: expressed in transfected cells
Method: The ability of the compounds of formula (I) to block the Nav1.7 (or SCN9A) channel was measured using the assays described below. Human Embryonic Kidney (HEK) cells were transfected with an hSCN9A construct using lipofectamine reagent (Invitrogen), using standard techniques. Cells stably expressing the hSCN9A constructs were identified by their resistance to G-418 (400 μg/ml). Clones were screened for expression using the whole-cell voltage-clamp technique. HEK cells stably transfected with hSCN9A were maintained in DMEM medium supplemented with 10% heat-inactivated fetal bovine serum and 400 μg/ml G-418 in an incubator at 37° C. with a humidified atmosphere of 10% CO2. For HTS, cells were harvested from flasks by trypsinization and replated in an appropriate multi-well plate (typically 96 or 384 wells/plate) such that confluence would be achieved within 24 hours of plating. For electrophysiological studies, cells were removed from the culture flask by brief trypsinization and re-plated at low density onto glass cover slips. Cells were typically used for electrophysiological experiments within 24 to 72 hours after plating. Electrophysiological assays were also conducted using the lonworks Quattro automated electrophysiological platform (Molecular Devices Corp). Intracellular and extracellular solutions were as described above with the following changes, 100 μg/ml amphotericin was added to the intracellular solution to perforate the membrane and allow electrical access to the cells. hSCN9A cells were grown and harvested as for PatchXpress and cells were resuspended in extracellular solution at a concentration of 3−4×10^6 cells/ml. The onboard liquid handling facility of the lonworks Quattro was used for dispensing cells and application of test compounds. A voltage protocol was then applied that comprised of a voltage step to fully inactivate the sodium channels, followed by a brief hyperpolarized recovery period to allow partial recovery from inactivation for unblocked sodium channels, followed by a test depolarized voltage step to assess magnitude of inhibition by test compound. Compound effect was determined based on current amplitude difference between the pre-compound addition and post-compound addition scans. Compounds of the Examples were tested in the assays described above and found to have the Nav1.7 EIC50 (μM) values specified in the table below. All data are derived from the PatchXpress assay unless explicitly stated otherwise.

[2] = target: T1, Nav1.7 (or SCN9A) channel; assay: Nav1.7 PatchXpress 7000 automated electrophysiology assay (HEK cells stably expressing hSCN9A); format: cell-based; settings: voltage-clamped at V1/2 of inactivation, read-out: Nav1.7 EIC50
Summary of the method: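 Automated whole-cell clamp (PatchXpress) of HEK cells stably expressing hSCN9A, at 22-24 °C, in extracellular buffer at pH 7.4. Cells were held at the measured V1/2 of inactivation, then stepped to 0 mV for 20 ms. Single-concentration % inhibition gave EIC50 = concentration × (100 − %inhibition)/%inhibition, excluding <20% or >80%.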

T1 sequence (Q15858 whole entry): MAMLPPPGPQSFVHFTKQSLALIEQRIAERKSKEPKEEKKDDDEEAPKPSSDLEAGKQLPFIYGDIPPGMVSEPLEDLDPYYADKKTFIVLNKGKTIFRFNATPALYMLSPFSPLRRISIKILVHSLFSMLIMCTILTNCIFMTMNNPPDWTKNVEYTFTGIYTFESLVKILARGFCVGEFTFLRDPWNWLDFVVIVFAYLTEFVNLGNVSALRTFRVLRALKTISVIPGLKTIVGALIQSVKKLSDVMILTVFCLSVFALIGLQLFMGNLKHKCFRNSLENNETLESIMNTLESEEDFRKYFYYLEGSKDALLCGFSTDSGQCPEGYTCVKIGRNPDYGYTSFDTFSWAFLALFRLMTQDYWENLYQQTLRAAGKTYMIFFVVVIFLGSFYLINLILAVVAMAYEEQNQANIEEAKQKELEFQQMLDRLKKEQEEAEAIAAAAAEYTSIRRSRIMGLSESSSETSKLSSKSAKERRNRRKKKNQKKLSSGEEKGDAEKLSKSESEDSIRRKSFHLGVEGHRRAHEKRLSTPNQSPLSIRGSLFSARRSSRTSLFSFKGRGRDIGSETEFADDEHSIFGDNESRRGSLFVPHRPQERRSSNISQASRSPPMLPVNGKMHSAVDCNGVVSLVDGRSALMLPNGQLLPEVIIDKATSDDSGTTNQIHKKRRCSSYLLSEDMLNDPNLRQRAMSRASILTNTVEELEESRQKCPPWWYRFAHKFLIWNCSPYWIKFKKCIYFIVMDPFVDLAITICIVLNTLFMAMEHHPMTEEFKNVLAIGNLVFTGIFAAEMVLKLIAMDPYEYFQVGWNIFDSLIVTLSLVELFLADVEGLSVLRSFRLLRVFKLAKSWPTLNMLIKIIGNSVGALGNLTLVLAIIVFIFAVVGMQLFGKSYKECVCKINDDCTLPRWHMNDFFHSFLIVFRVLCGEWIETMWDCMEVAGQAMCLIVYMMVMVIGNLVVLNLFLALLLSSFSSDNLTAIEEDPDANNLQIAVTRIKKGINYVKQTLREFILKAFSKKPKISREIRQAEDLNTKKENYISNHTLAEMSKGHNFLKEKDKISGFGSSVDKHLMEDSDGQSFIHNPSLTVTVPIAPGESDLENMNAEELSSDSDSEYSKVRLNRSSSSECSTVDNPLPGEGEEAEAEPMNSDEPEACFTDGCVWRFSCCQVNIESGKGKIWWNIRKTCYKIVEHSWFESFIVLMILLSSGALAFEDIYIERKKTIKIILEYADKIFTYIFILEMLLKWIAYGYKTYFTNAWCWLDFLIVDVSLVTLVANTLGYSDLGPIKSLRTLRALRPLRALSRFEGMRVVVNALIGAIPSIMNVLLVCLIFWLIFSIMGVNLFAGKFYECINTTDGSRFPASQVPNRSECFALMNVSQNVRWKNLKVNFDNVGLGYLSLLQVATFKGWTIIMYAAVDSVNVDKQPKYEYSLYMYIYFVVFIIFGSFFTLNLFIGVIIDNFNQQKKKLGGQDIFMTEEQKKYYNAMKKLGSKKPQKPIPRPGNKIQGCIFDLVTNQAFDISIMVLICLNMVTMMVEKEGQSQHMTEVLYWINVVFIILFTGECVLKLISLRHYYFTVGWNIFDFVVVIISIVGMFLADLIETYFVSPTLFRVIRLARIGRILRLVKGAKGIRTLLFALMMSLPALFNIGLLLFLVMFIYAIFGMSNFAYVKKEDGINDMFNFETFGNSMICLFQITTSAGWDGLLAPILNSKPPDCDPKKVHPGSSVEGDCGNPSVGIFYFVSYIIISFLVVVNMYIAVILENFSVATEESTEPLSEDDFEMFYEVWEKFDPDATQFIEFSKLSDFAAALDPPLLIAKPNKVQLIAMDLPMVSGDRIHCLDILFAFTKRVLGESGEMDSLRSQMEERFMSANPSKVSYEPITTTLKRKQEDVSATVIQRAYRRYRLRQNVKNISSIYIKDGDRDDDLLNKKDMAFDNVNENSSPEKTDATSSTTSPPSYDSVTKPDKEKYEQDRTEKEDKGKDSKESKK

Row | SMILES | pIC50 [1] | pIC50 [2]
1 | COc1cc(C(=O)NS(C)(=O)=O)ccc1Oc1ccc(F)c(C(F)(F)F)c1 [Example 241, 4-[4-fluoro-3-(trifluoromethyl)phenoxy]-3-methoxy-N-(methylsulfonyl)benzamide] | 3.84 | 
2 | Cc1ccccc1Oc1ccc(C(=O)NS(C)(=O)=O)cc1C#N [Example 275, 3-cyano-4-(2-methylphenoxy)-N-(methylsulfonyl)benzamide] | 3.94 | 
3 | COc1c(C(=O)NS(C)(=O)=O)ccc(Oc2ccc(Cl)c(F)c2)c1F [Example 221, 4-(4-chloro-3-fluorophenoxy)-3-fluoro-2-methoxy-N-(methylsulfonyl)benzamide] | 3.52 | 
4 | COc1ccc(Oc2cc(F)c(C(=O)NS(C)(=O)=O)cc2Cl)cc1 [Example 301, 5-chloro-2-fluoro-4-(4-methoxyphenoxy)-N-(methylsulfonyl)benzamide] | 4.21 | 
5 | CS(=O)(=O)NC(=O)c1cc(F)c(Oc2ccccc2C#N)cc1F [Example 327, 4-(2-cyanophenoxy)-2,5-difluoro-N-(methylsulfonyl)benzamide] | < 3.49 | 
6 | CS(=O)(=O)NC(=O)c1ccc(Oc2ccccc2OC(F)(F)F)cc1 [Example 209, N-(methylsulfonyl)-4-[2-(trifluoromethoxy)phenoxy]benzamide] | 4.55 | 
7 | CS(=O)(=O)NC(=O)c1ccc(Oc2ccccc2C#N)cc1 [Example 211, 4-(2-cyanophenoxy)-N-(methylsulfonyl)benzamide] | 4.17 | 
8 | CS(=O)(=O)NC(=O)c1ccc(Oc2ccc(C(F)(F)F)cc2)cc1C#N [Example 243, 2-cyano-N-(methylsulfonyl)-4-[4-(trifluoromethyl)phenoxy]benzamide] | 4.92 | 
9 | CCOc1cc(C)ccc1Oc1cc(F)c(C(=O)NS(C)(=O)=O)cc1F [Example 148, 4-(2-ethoxy-4-methylphenoxy)-2,5-difluoro-N-(methylsulfonyl)benzamide] |  | < 6.00
10 | COc1cccc(Oc2ccc(C(=O)NS(C)(=O)=O)cc2C#N)c1 [Example 277, 3-cyano-4-(3-methoxyphenoxy)-N-(methylsulfonyl)benzamide] |  | 5.25
11 | Cc1ccccc1Oc1cc(F)c(C(=O)NS(C)(=O)=O)cc1F [Example 111, 2,5-difluoro-4-(2-methylphenoxy)-N-(methylsulfonyl)benzamide] |  | < 5.52
12 | CS(=O)(=O)NC(=O)c1ccc(Sc2cccc(OC(F)(F)F)c2)cc1 [Example 318, N-(Methylsulfonyl)-4-{[3-(trifluoromethoxy)phenyl]sulfanyl}benzamide] |  | 5.25
13 | CS(=O)(=O)NC(=O)c1cc(F)c(Oc2ccc(Cl)cc2)cc1F [Example 129, 4-(4-chlorophenoxy)-2,5-difluoro-N-(methylsulfonyl)benzamide] |  | 5.89
14 | COc1ccccc1Sc1ccc(C(=O)NS(C)(=O)=O)cc1 [Example 324, 4-(2-methoxyphenylthio)-N-(methylsulfonyl)benzamide] |  | < 5.52
15 | COc1cccc(Oc2ccc(C(=O)NS(C)(=O)=O)cc2Cl)c1 [Example 255, 3-chloro-4-(3-methoxyphenoxy)-N-(methylsulfonyl)benzamide] |  | 5.85
16 | CS(=O)(=O)NC(=O)c1cc(F)c(Oc2cccc(OC(F)(F)F)c2)cc1F [Example 124, 2,5-difluoro-N-(methylsulfonyl)-4-[3-(trifluoromethoxy)phenoxy]benzamide] |  | 6.31
17 | CS(=O)(=O)NC(=O)c1ccc(Oc2ccc(Cl)c(C(F)(F)F)c2)cc1F [Example 14, 4-(4-chloro-3-(trifluoromethyl)phenoxy)-2-fluoro-N-(methylsulfonyl)benzamide] |  | 6.07
18 | COc1cc(C(F)(F)F)ccc1Oc1cc(F)c(C(=O)NS(C)(=O)=O)cc1F [Example 74, 2,5-difluoro-4-(2-methoxy-4-(trifluoromethyl)phenoxy)-N-(methylsulfonyl)benzamide] |  | < 6.00
19 | CS(=O)(=O)NC(=O)c1cc(F)c(Oc2c(F)cccc2Cl)cc1F [Example 91, 4-(2-chloro-6-fluorophenoxy)-2,5-difluoro-N-(methylsulfonyl)benzamide] |  | < 5.52
20 | Cc1cc(Oc2cc(F)c(C(=O)NS(C)(=O)=O)cc2F)cc(C)c1C#N [Example 112, 4-(4-cyano-3,5-dimethylphenoxy)-2,5-difluoro-N-(methylsulfonyl)benzamide] |  | < 5.52
21 | CCOc1ccc(Oc2cc(F)c(C(=O)NS(C)(=O)=O)cc2Cl)cc1 [Example 294, 5-chloro-4-(4-ethoxyphenoxy)-2-fluoro-N-(methylsulfonyl)benzamide] |  | 6.80
22 | COc1c(C(=O)NS(C)(=O)=O)ccc(Oc2ccc(Cl)c(Cl)c2)c1F [Example 234, 4-(3,4-dichlorophenoxy)-3-fluoro-2-methoxy-N-(methylsulfonyl)benzamide] |  | 6.07
23 | CCOc1ccccc1Oc1cc(F)c(C(=O)NS(C)(=O)=O)cc1Cl [Example 288, 5-chloro-4-(2-ethoxyphenoxy)-2-fluoro-N-(methylsulfonyl)benzamide] |  | 5.70
24 | CC(C)Oc1ccccc1Oc1cc(F)c(C(=O)NS(C)(=O)=O)cc1F [Example 90, 2,5-difluoro-4-(2-isopropoxyphenoxy)-N-(methylsulfonyl)benzamide] |  | < 6.52

Now from value to molecule:

Row | pIC50 [1] | pIC50 [2] | SMILES
25 | < 3.49 |  | CCOc1cccc(Oc2ccc(C(=O)NS(C)(=O)=O)cc2)c1 [Example 259, 4-(3-ethoxyphenoxy)-N-(methylsulfonyl)benzamide]
26 | 3.56 |  | COc1ccc(Oc2ccc(C(=O)NS(C)(=O)=O)cc2C#N)cc1 [Example 274, 3-cyano-4-(4-methoxyphenoxy)-N-(methylsulfonyl)benzamide]
27 | 4.44 |  | COc1cc(Oc2ccc(Cl)cc2)ccc1C(=O)NS(C)(=O)=O [Example 235, 4-(4-chlorophenoxy)-2-methoxy-N-(methylsulfonyl)benzamide]
28 |  | 5.85 | CS(=O)(=O)NC(=O)c1ccc(Oc2ccc(Cl)c(Cl)c2)cc1 [Example 182, 4-(3,4-dichlorophenoxy)-N-(methylsulfonyl)benzamide]
29 |  | < 5.00 | CS(=O)(=O)NC(=O)c1ccc(Oc2ccc(Cl)cc2Cl)cc1 [Example 38, 4-(2,4-dichlorophenoxy)-N-(methylsulfonyl)benzamide]
30 |  | 5.19 | CCS(=O)(=O)NC(=O)c1ccc(Oc2ccc(F)cc2)cc1 [Example 305, N-(ethylsulfonyl)-4-(4-fluorophenoxy)benzamide]
31 |  | 5.12 | Cc1cccc(Oc2ccc(C(=O)NS(C)(=O)=O)cc2)c1 [Example 254, 4-(3-methylphenoxy)-N-(methylsulfonyl)benzamide]
32 |  | 6.18 | CS(=O)(=O)NC(=O)c1ccc(Oc2ccc(F)cc2)c(Cl)c1 [Example 41, 3-chloro-4-(4-fluorophenoxy)-N-(methylsulfonyl)benzamide]
33 |  | 5.12 | Cc1cc(Oc2ccc(C(=O)NS(C)(=O)=O)cc2)ccc1F [Example 199, 4-(4-fluoro-3-methylphenoxy)-N-(methylsulfonyl)benzamide]
34 |  | 4.66 | CS(=O)(=O)NC(=O)c1ccc(Oc2cccc(F)c2F)cc1 [Example 195, 4-(2,3-difluorophenoxy)-N-(methylsulfonyl)benzamide]
35 |  | 4.80 | Cc1ccc(Oc2ccc(C(=O)NS(C)(=O)=O)cc2)c(C)c1 [Example 172, 4-(2,4-dimethylphenoxy)-N-(methylsulfonyl)benzamide]
36 |  | 4.92 | CS(=O)(=O)NC(=O)c1ccc(Oc2cccc(C(F)(F)F)c2)cc1 [Example 163, N-(methylsulfonyl)-4-[3-(trifluoromethyl)phenoxy]benzamide]
